Test results from patent EP0855181A2 (priority 1997, dated 1998).
Where two headings read alike, the source gives them in different places.

Legend:
Human neutrophils (PMN) = system: Human neutrophils (PMN)
Procedure: Human neutrophils (PMN) are isolated from EDTA-anticoagulated blood by Ficoll-density-centrifugation and by dextran sedimenation as described by Böyum, A. in Scand. J. Clin. Lab. Invest. 21(Suppl. 97):77-89, 1968.Variable concentrations of glycine (4.0 mM, 0.4 mM and 0.04 mM in a volume of 50 µl) and as a control 50 µl PBS are incubated with human neutrophils (2x10^7 cells/ml in a volume of 500 µl in Ca/Mg (1/0.5mM) and 0.25mM luminol) for 20 min at 37°C and stimulation is subsequently carried out with fMLP (N-formyl-methionyl-leucyl-phenylalanine, 10^-5M), NaF (20mM) or PMA (10 ng), each in a volume of 50µl, for 30 min at 37°C. fMLP is a receptor-mediated stimulus, NaF is a G-protein-mediated activator of cells and PMA activates the protein kinase C. As a control neutrophils are incubated with the variable glycine concentrations without subsequent stimulation. Respiratory burst is measured by chemiluminescence response of oxygen radicals essentially as described in Immunology, 1992, 76, 86-94.

Neutrophils (PMNs) = system: Neutrophils (PMNs)
Procedure: Neutrophils (PMNs, isolated as described in example 2, in a concentration of 2x10^7/ml in a volume of 500µl + 50 µl 1mM Ca/0.5mM Mg) are preincubated with glycine (0.0004mM, 0.004mM, 0.04mM, 0.4mM and 4mM in a volume of 50µl) for 20 or 30 minutes at 37°C. Subsequently they are treated with cytochalasin (50 µl, 10^-5M) and stimulated with 50 µl fMLP (10^-5M), NaF (20mM), or primed with 50µl GM-CSF (10ng) and subsequently stimulated with 50µl NaF (20mM), fMLP (10^-5M) or Ca-ionophore (5µM) and incubated for a further 20 minutes at 37°C. Leukotrienes are measured by HPLC as described in Immunology 67:401-407.

[1] = system: Peripheral mononuclear cells
Procedure: Peripheral mononuclear cells (as in example 2 but in a concentration of 10^6/ml) are pre-incubated with SEB at variable concentrations (50 µl of 1 ng/ml, 0,1 ng/ml and 0.01 ng/ml) in the presence of variable concentrations of glycine (as above) for 24h, 48h and 72h or pre-incubated with glycine and subsequently stimulated with different concentrations of SEB.

[2] = system: Peripheral mononuclear cells; conditions: glycine 0.00004-40 mM, 14 days, interleukin-4 and anti-CD40
Procedure: To this end, peripheral mononuclear cells (as in example 1) were incubated with variable concentrations of glycine (0.00004mM, 0.0004mM, 0.004mM, 0.04mM, 0.4mM, 4mM, 40mM). The incubation time is carried out over 14 days. The cells were stimulated in the presence of glycine with interleukin-4 and anti-CD40 as B-cell activator. In the supernatant, the IgM, IgA, IgG and IgE synthesis was analysed.

[3] = system: superantigen primed neutrophils
[4] = system: Peripheral mononuclear cells (PMNs)
[5] = system: Peripheral mononuclear cells (PMNs); remark: listed apart in the source
[6] = system: lymphocytes, monocytes, basophils (LMBs)
[7] = system: lymphocytes, monocytes, basophils (LMBs); remark: listed apart in the source
[8] = cells primed with GM-CSF, variable glycine, then NaF
[9] = glycine pre-incubation over 30 minutes

With `NCC(=O)O` [glycine] the respiratory burst (Human neutrophils (PMN); glycine 0.04 mM, then fMLP) was “further modulation”, the “oxygen metabolites (respiratory burst)” value (Human neutrophils (PMN); glycine 4.0, 0.4, 0.04 mM, 20 min at 37°C, no subsequent stimulation) was “no effect” and the respiratory burst (Human neutrophils (PMN); glycine pre-incubation, then NaF (20mM)) was “dose-dependent suppression and also an increase”. For the same compound, the respiratory burst (Human neutrophils (PMN); glycine pre-incubation, then PMA (10 ng)) was “No changes”, the LTB4 generation (Neutrophils (PMNs); [8]) was “inhibition” and the LTC4 generation (Neutrophils (PMNs); [8]) was “inhibition”. The LTB4 generation (Neutrophils (PMNs); cells primed with GM-CSF, variable glycine, then calcium ionophore) was “marginal increase”, the LTB4 release (Neutrophils (PMNs); cells primed with GM-CSF, variable glycine, then fMLP) was “fluctuating” and the “fMLP-induced LTE4 generation” value (Neutrophils (PMNs); glycine 4.0 mM) was “suppressing influence”. For the same compound, the LTB4 release (Neutrophils (PMNs); [9]) was “increase”, the LTC4 release (Neutrophils (PMNs); [9]) was “suppression” and the omega-LTB4 release (Neutrophils (PMNs); [9]) was “increase”. The leukotriene-E4 (Neutrophils (PMNs); neutrophils activated with calcium ionophore in the presence of glycine) was “very strong suppression”, the LTB4 generation (Neutrophils (PMNs); neutrophils in the presence of glycine, fMLP) was “suppression” and the interferon-γ release ([1]; 48 hours glycine pre-incubation, subsequent RSV stimulation) was “intense increase”. The interferon-γ release ([1]; 48 hours glycine pre-incubation, subsequent SEB stimulation (Fig. 2), refers to intense increase) was “similarly indicated”, the interferon-γ release ([1]; RSV used instead of SEB) was “dose-dependent increase” and the interferon-γ release ([1]; SEB with glycine, incubation of up to 48 hours) was “Marginal effects”. The interferon-γ release ([1]; glycine pre-incubation over 72 hours, SEB as activator) was “increase”, the “release of interferon-γ” value ([1]; glycine pre-incubation, subsequent SEB stimulation) was “extremely potent release” and the interferon-γ concentration ([1]; very long glycine pre-incubation and subsequent stimulation) was “reduction”. For the same compound, the “induced IgE synthesis” value [2] was “no affect”, the “other immunoglobulins (IgM, IgA, IgG synthesis)” value [2] was “no changes” and the 20-carboxy-LTB4 [3] was “drop”. The LTC4 [3] was “increase”, the cysteinyl leukotrienes [3] was “increase” and the omega-LTB4 generation [3] was “increase”. For the same compound, the “release of 12-HETE” value [3] was “increase”, the IL-8 release [4] was “significant increase” and the interleukin-8 release ([4]; cells pre-incubated with interferon-γ, then staphylococcus enterotoxin B) was “dose-dependent stimulation”. The interleukin-8 release ([4]; staphylococcus enterotoxin B stimulation) was “marginal increase”, the TNF release ([5]; GM-CSF (10 ng) primed model, then SEB (10 ng)) was “suppression” and the TNF release ([5]; RSV as stimulus) was “modulation”. For the same compound, the TNF release ([5]; conditions of the interleukin-8 experiments) was “no significant changes”, the TNF ([5]; glycine 0.0004-0.4 mM pre-incubation, then SEB (10 ng)) was “dose-dependent increase” and the “SEB-induced TNF release” value ([5]; glycine pre-incubation, then SEB) was “increase”. The TNF release ([5]; glycine pre-incubation, then SEB, in dependence on stimulus) was “suppression”, the TNF release ([5]; phospholipase C at variable concentrations as stimulus, 'also applies' refers to modulation) was “This also applies” and the interleukin-10 [6] was “increase”. For the same compound, the “release of interleukin-10” value ([6]; glycine combined with staphylococcus enterotoxin B (Fig. 1)) was “significant release”, the “SEB-induced TNF-α release” value [7] was “marked suppression” and the TNF-α [7] was “increase”. For the same compound, the “phospholipase C induced TNF-α release” value [7] was “great suppression”, the “suppression of the TNF-α release” value [7] was “lower” and the “staphylococcus enterotoxin B induced TNF-α release” value ([7]; LMBs incubated with interferon-γ 24 hours, then SEB) was “great suppression”. The interleukin-12 release (LMBs; GM-CSF priming, glycine 2 hours, then SEB, eliminated with low glycine concentrations) was “marginal reduction” and the interleukin-12 release (LMBs; glycine incubation alone, low concentrations of glycine) was “stimulatory effect”.
